Measured values: patent publication US20240310388A1, “DIAGNOSTIC METHODS FOR HIDRADENITIS SUPPURATIVA” (AMGEN INC., priority 2023, published 2024)

Columns and labels:
HS patients = test: Phase 2 clinical study (NCT03852472): safety and tolerability; assay type: in vivo, human
Method: The study was a randomized, double-blind, placebo-controlled, three group Phase 2 trial in 435 subjects with moderate to severe hidradenitis suppurativa (Hurley stage II or III). Subjects were randomized 1:1:1 to a treatment of 10 mg avacopan twice daily, 30 mg avacopan twice daily or a placebo twice daily for 12 weeks. Following the 12 weeks double-blind treatment period, subjects on placebo were re-randomized 1:1 to receive 10 mg or 30 mg avacopan twice daily for additional 24 weeks. Subjects treated with avacopan continued to receive the same dose (either 10 mg or 30 mg twice daily) for additional 24 weeks.
Subjects were on study treatment for 36 weeks and were followed for 8 weeks for assessment of safety and efficacy. The primary efficacy analysis was at 12 weeks.

[1] = test system: subjects with moderate to severe hidradenitis suppurativa (Hurley stage II or III); test: Phase 2 clinical study (NCT03852472, AURORA): HiSCR, AN count, DF count and IHS4 at Week 12; assay type: in vivo, human; settings: for HiSCR response rate % (n/N): biomarker sample subset of AURORA (n = 68 HS patients), placebo 25
Method: The study was a randomized, double-blind, placebo-controlled, three group Phase 2 trial in 435 subjects with moderate to severe hidradenitis suppurativa (Hurley stage II or III). Subjects were randomized 1:1:1 to a treatment of 10 mg avacopan twice daily, 30 mg avacopan twice daily or a placebo twice daily for 12 weeks. Following the 12 weeks double-blind treatment period, subjects on placebo were re-randomized 1:1 to receive 10 mg or 30 mg avacopan twice daily for additional 24 weeks. Subjects treated with avacopan continued to receive the same dose (either 10 mg or 30 mg twice daily) for additional 24 weeks. Subjects were on study treatment for 36 weeks and were followed for 8 weeks for assessment of safety and efficacy. The primary efficacy analysis was at 12 weeks. The primary efficacy endpoint assessed by the proportion of subjects achieving Hidradenitis Suppurativa Clinical Response (HiSCR) at Week 12. • At least 18 years of age • Clinical diagnosis of HS (Hurley Stage II or III), confirmed by a dermatologist, for at least 6 months prior to Screening • HS lesions are present in at least 2 distinct anatomic areas • Inadequate or loss of response to a systemic course of antibiotics typically of at least 90 days • Must have at least 5 inflammatory nodules or abscesses at screening • Use adequate birth control for subject and partners of child bearing potential • Willing and able to give written Informed Consent • Pregnant or breast-feeding • Any other skin disease that may interfere with the assessment of HS • Rapidly progressive, expanding HS within 30 days prior to screening • More than 20 draining fistulae at screening • Any anti-TNF-α treatment for HS or for other conditions prior to Day 1 visit will be prohibited. Exception: Subjects who were previously treated with an anti-TNF-α drug and discontinued treatment >12 weeks prior to Day 1 visit are allowed for enrollment • Systemic antibiotics are generally excluded • Topical antibiotics use within 14 days prior to Day 1 is excluded • Have started a topical prescription medicine for HS within 14 days prior to screening • A systemic medicine for HS, including biologics and other systemic therapies • Have received within 14 days prior to Day 1 visit or is expected to require oral or transdermal opioid analgesics (except for tramadol) for any reason The proportion of subjects achieving HiSCR at Week 12 is calculated as those subjects having at least a 50% reduction from baseline in abscess and inflammatory nodule (AN) count, with no increase in abscess count and no increase in draining fistula count number at Week 12 divided by the total number of subjects with non-missing value in each treatment group. p-values are obtained from a Cochran-Mantel-Haenszel (CMH) test stratified by stratification factors Hurley Stage (Stage II vs. III), and anti-TNF drug use (Treatment naïve vs. Previous treatment). Plasma samples were collected at baseline prior to the start of treatment from 68 enrolled HS patients in phase II AURORA study (NCT03852472) and from 20 independent age and gender matched healthy controls.

Cc1ccc(NC(=O)[C@H]2CCCN(C(=O)c3c(C)cccc3F)[C@H]2c2ccc(NC3CCCC3)cc2)cc1C(F)(F)F [avacopan]
safety and tolerability (HS patients): safe and well tolerated
% Difference (avacopan − placebo) in HiSCR ([1]; Hurley Stage II, Week 12, avacopan 10 mg BID): −13.9%
% Adjusted difference (avacopan − placebo) in HiSCR ([1]; Hurley Stage II, Week 12, avacopan 10 mg BID, 95% CI (−26.8, −0.2)): −13.8%
HiSCR Responder Rate, n/N ([1]; Hurley Stage II, Week 12, avacopan 10 mg BID, placebo 35.3, p=0.0473): 21.4%
HiSCR Responder Rate, n/N ([1]; Hurley Stage II, Week 12, avacopan 10 mg BID, placebo 35.3, p=0.0473, listed as Avacopan): 18/84 (21.4) %
% Difference (avacopan − placebo) in HiSCR ([1]; Hurley Stage II, Week 12, avacopan 30 mg BID): −4.3%
% Adjusted difference (avacopan − placebo) in HiSCR ([1]; Hurley Stage II, Week 12, avacopan 30 mg BID, 95% CI (−18.1, 9.6)): −4.3%
HiSCR Responder Rate, n/N ([1]; Hurley Stage II, Week 12, avacopan 30 mg BID, placebo 35.3, p=0.5469): 27/87 (31.0) %
HiSCR Responder Rate, n/N ([1]; Hurley Stage III (ITT1), Week 12, avacopan 10 mg BID, placebo 22.2): 24.0%
HiSCR Responder Rate, n/N ([1]; Hurley Stage III (ITT1), Week 12, avacopan 10 mg BID, placebo 22.2, listed as Avacopan): 12/50 (24) %
HiSCR Responder Rate, n/N ([1]; Hurley Stage III (ITT1), Week 12, avacopan 30 mg BID, placebo 22.2, p=0.0349 (text)): 42.6%
HiSCR Responder Rate, n/N ([1]; Hurley Stage III (ITT1), Week 12, avacopan 30 mg BID, placebo 22.2, p=0.0349 (text), listed as Avacopan): 20/47 (42.6) %
IHS4, AN, draining fistula and abscess count ([1]; Hurley Stage III patients, week 12): consistent reduction
% Difference (avacopan − placebo) in HiSCR ([1]; Hurley Stage III, Week 12, avacopan 10 mg BID): 1.8%
% Adjusted difference (avacopan − placebo) in HiSCR ([1]; Hurley Stage III, Week 12, avacopan 10 mg BID, 95% CI (−15.3, 18.3)): 1.8%
% Difference (avacopan − placebo) in HiSCR ([1]; Hurley Stage III, Week 12, avacopan 30 mg BID): 20.3%
% Adjusted difference (avacopan − placebo) in HiSCR ([1]; Hurley Stage III, Week 12, avacopan 30 mg BID, 95% CI (1.6, 37.9)): 20.8%
percentage reduction in IHS4 Score ([1]; Hurley Stage III, Week 12, avacopan 30 mg BID, placebo 20.7%): 36.9%
percentage reduction in AN count ([1]; Hurley Stage III, Week 12, avacopan 30 mg BID, placebo 23.7%): 40.8%
percentage reduction in DF count ([1]; Hurley Stage III, Week 12, avacopan 30 mg BID, placebo 24.0%): 45.2%
HiSCR response rate % (n/N) ([1]; avacopan 10 mg): 29.2 (7/24) %
HiSCR response rate % (n/N) ([1]; avacopan 30 mg): 54.2 (13/24) %
improvement in HiSCR vs. placebo ([1]; pre-specified Hurley Stage III (severe HS) patients at 12 weeks): statistically significant dose-dependent improvement
